Measured values published in patent publication US20260217701A1, “SELECTIVE BET INHIBITORS AND USES THEREOF” (Tay Therapeutics Limited, priority 2022, published 2026).
“Also recorded” adds a separate entry of the source. Read-outs that look alike come from different tables or passages of the source.

Key:
[1] = test system: collagen-induced arthritis; details: for average overall clinical score at plateau: around day 18-19
Experimental: (§1) The emulsion was cooled in an ice water bath during the formulation. The final concentration of collagen was 1 mg/mL. The emulsion is prepared fresh immediately prior to injection.
as §1
Experimental groups for the study are outlined in Table 5A. […] Animals in group one received no immunization.
IHC markers for staining were selected after evaluating clinical and histopathological scores for animals. After the skin was removed, the right hind limb was snap frozen in liquid nitrogen and RNA and protein analysis was performed.
Blood samples were collected from animals in groups 1-7 via cardiac puncture following euthanasia on Day 21. […] Serum was divided into two separate tubes and stored at −75±15° C. One tube was used to analyze IgG1, and the other tube was reserved for additional analyses.
H&E-stained slides of designated tissues from animals were transferred to an independent pathologist for microscopic evaluation (SPFBio). Samples were assigned the histologic grades based on the severity of change from tissue where CIA was not induced. Histology grades assigned were as follows: grade 1 (minimal change), grade 2 (mild change), grade 3 (moderate change), grade 4 (marked change), and grade 5 (severe change). A grade may be assigned for each indicator of disease severity: inflammation, mixed cell; granulation tissue; increased bone, periosteum; increased eroded surface, bone and erosion/ulcer, cartilaginous. […] Moderate inflammation was also associated with increased edema fluid, fibrin, and cellular debris. Marked mixed cell inflammation was characterized by dense, widespread accumulations of neutrophils and macrophages with lesser number of lymphocytes within one or more joint spaces, synovium and periarticular soft tissues. Marked inflammation was also associated with abundant edema fluid, fibrin, and cellular debris.
Marked granulation tissue (pannus) was associated with inflammation and was characterized by widespread fibrovascular connective tissue that expanded/replaced the periarticular soft tissues of one or more joints, extended into/expanded joint spaces, was contiguous with areas of erosion/ulcer in articular cartilage and/or increased eroded surface of bone, and variably extended along the diaphysis.
Marked increased periosteal bone (periosteal bone formation) was characterized by extensive areas of increased bone matrix and numerous prominent osteoblasts lining trabecular surfaces along the metaphysis and/or diaphysis of one or more bones.

[2] = test system: collagen-induced arthritis; assay: CIA model: histopathologic analysis of hind limbs; assay type: in vivo, Lewis rats; details: for Erosion/Ulcer, cartilaginous, Marked (number of animals) / Erosion/Ulcer, cartilaginous, Mild (number of animals) / Erosion/Ulcer, cartilaginous, Minimal (number of animals) / Erosion/Ulcer, cartilaginous, Moderate (number of animals) / Granulation tissue, Marked (number of animals) / Granulation tissue, Mild (number of animals) / Granulation tissue, Minimal (number of animals) / Granulation tissue, Moderate (number of animals) / Increased bone, periosteum, Marked (number of animals) / Increased bone, periosteum, Mild (number of animals) / Increased bone, periosteum, Minimal (number of animals) / Increased bone, periosteum, Moderate (number of animals) / Increased eroded surface, bone, Marked (number of animals) / Increased eroded surface, bone, Mild (number of animals) / Increased eroded surface, bone, Minimal (number of animals) / Increased eroded surface, bone, Moderate (number of animals) / Mixed cell inflammation, Marked (number of animals) / Mixed cell inflammation, Mild (number of animals) / Mixed cell inflammation, Minimal (number of animals) / Mixed cell inflammation, Moderate (number of animals) / No Visible Lesions (number of animals): hind limbs, CIA induced, 8 animals examined
Description: Mean histopathologic scores for tissue samples from animals in Groups 1-6 are depicted in FIG. 22A, and day 21 histology scores for all animals are illustrated in FIG. 22B.

[3] = Group 5 (CIA + Compound A 1 mg/kg), 1 mg/kg
[4] = Group 6 (CIA + Compound A 3 mg/kg)
[5] = Group 7 (CIA + Compound A 10 mg/kg), two out of eight samples

## Cn1cc(-c2ccccc2)c(-c2cn(C)c(=O)c3[nH]c(-c4cnn(C(F)(F)F)c4)cc23)cc1=O [Compound A, 6-methyl-4-(1-methyl-2-oxo-5-phenyl-1,2-dihydropyridin-4-yl)-2-(1-(trifluoromethyl)-1H-pyrazol-4-yl)-1,6-dihydro-7H-pyrrolo[2,3-c]pyridin-7-one]
[1]; 1 mg/kg (group 5), around day 18
  plateau increase in paw volume relative to day 0: approximately 50%
[1]; 1 mg/kg (group 5), day 14
  animals exhibiting disease: 5/8
[1]; 1 mg/kg (group 5), day 18
  animals exhibiting disease: 7/8
[1]; 1 mg/kg and 3 mg/kg vs GSK620 10 mg/kg
  percent inhibition in clinical score relative to GSK620: nearly twice as high
[1]; 1 mg/kg or 3 mg/kg vs GSK620 10 mg/kg
  percent inhibition of increase in paw volume relative to GSK620: more than twice
[1]; 3 mg/kg
  plateau increase in paw volume relative to day 0: approximately 40%
[1]; 3 mg/kg (group 6), day 15
  animals exhibiting disease: 4/8
[1]; 3 mg/kg (group 6), day 18
  animals exhibiting disease: all animals
[1]; 10 mg/kg (group 7), day 15
  animals exhibiting disease: 4/8
[1]; 10 mg/kg (group 7), day 18
  animals exhibiting disease: 7/8
[1]; 10 mg/kg PO QD, Day 21
  decrease in paw volume relative to CIA+Vehicle: ~79%
  reduction in clinical score compared to vehicle-treated animals: ~71%
[1]; 10 mg/kg, day 21, serum
  rat anti-collagen IgG1 antibodies, lower than vehicle treated animals: > 98%
[1]; 10 mg/kg, Group 7
  plateau increase in paw volume relative to day 0: approximately 35%
[1]; 1, 3 and 10 mg/kg, day 21, p<0.01
  rat anti-collagen IgG1 antibodies relative to untreated CIA animals: significantly decreased
[1]; group 5 (1 mg/kg)
  average overall clinical score at plateau: 5
[1]; group 6 (3 mg/kg)
  average overall clinical score at plateau: 4
[1]; group 7 (10 mg/kg)
  average overall clinical score at plateau: 4
[2]; 1 mg/kg, Group 5
  Samples with no pathologic observations: One out of eight
[2]; 3 mg/kg, Group 6
  Samples with no pathologic observations: Two out of eight
[2]; 10 mg/kg, Group 7
  Samples with no pathologic observations: Six out of eight
[2]; 10 mg/kg, day 21
  Animals exhibiting normal limb/joint pathology: 6/8
[2]; [3]
  Erosion/ulcer in articular cartilage, grade: mild and mild to moderate
  Granulation tissue (pannus), grade: mild and mild to moderate
  Increased eroded surface of bone (bone resorption), grade: mild and mild to moderate
  Increased periosteal bone (periosteal bone formation), grade: mild and mild to moderate
  Mixed cell inflammation, grade: moderate to marked
[2]; [4]
  Erosion/ulcer in articular cartilage, grade: mild
  Increased eroded surface of bone (bone resorption), grade: mild
  Increased periosteal bone (periosteal bone formation), grade: mild
  Mixed cell inflammation, grade: moderate
[2]; Group 6 (CIA + Compound A 3 mg/kg), 3 mg/kg
  Granulation tissue (pannus), grade: mild and mild to moderate
[2]; Group 7 (CIA + Compound A 10 mg/kg), FIG. 23G, 23I, 10 mg/kg
  Histopathological observations, representative sample/image: no histopathological observations noted; also recorded: normal joint pathology
[2]; [5]
  Erosion in the articular cartilage, grade: mild
  Granulation tissue (pannus), grade: mild
  Increased periosteal bone (periosteal bone formation), grade: minimal
  Mixed cell inflammation, grade: mild to moderate
[2]; Groups 5-7 (Compound A 1, 3, 10 mg/kg)
  Pathologic observations relative to CIA-induced group (Group 2): all decreased in severity, extent, and distribution
[2]; all tested doses (1, 3, 10 mg/kg)
  Severity of arthritic histopathology versus vehicle- and GSK620-treated animals: dose-dependent reduction in the severity of arthritic histopathology; also recorded: significant dose-dependent decrease in the incidence and severity of collagen-induced arthritis
[2]; 1 mg/kg
  Erosion/Ulcer, cartilaginous, Marked (number of animals): 0
  Erosion/Ulcer, cartilaginous, Mild (number of animals): 6
  Erosion/Ulcer, cartilaginous, Minimal (number of animals): 0
  Erosion/Ulcer, cartilaginous, Moderate (number of animals): 1
  Granulation tissue, Marked (number of animals): 0
  Granulation tissue, Mild (number of animals): 3
  Granulation tissue, Minimal (number of animals): 0
  Granulation tissue, Moderate (number of animals): 3
  Increased bone, periosteum, Marked (number of animals): 0
  Increased bone, periosteum, Mild (number of animals): 4
  Increased bone, periosteum, Minimal (number of animals): 1
  Increased bone, periosteum, Moderate (number of animals): 0
  Increased eroded surface, bone, Marked (number of animals): 0
  Increased eroded surface, bone, Mild (number of animals): 3
  Increased eroded surface, bone, Minimal (number of animals): 0
  Increased eroded surface, bone, Moderate (number of animals): 2
  Mixed cell inflammation, Marked (number of animals): 0
  Mixed cell inflammation, Mild (number of animals): 2
  Mixed cell inflammation, Minimal (number of animals): 1
  Mixed cell inflammation, Moderate (number of animals): 4
  No Visible Lesions (number of animals): 1
[2]; 3 mg/kg
  Erosion/Ulcer, cartilaginous, Marked (number of animals): 0
  Erosion/Ulcer, cartilaginous, Mild (number of animals): 3
  Erosion/Ulcer, cartilaginous, Minimal (number of animals): 3
  Erosion/Ulcer, cartilaginous, Moderate (number of animals): 0
  Granulation tissue, Marked (number of animals): 0
  Granulation tissue, Mild (number of animals): 4
  Granulation tissue, Minimal (number of animals): 0
  Granulation tissue, Moderate (number of animals): 2
  Increased bone, periosteum, Marked (number of animals): 0
  Increased bone, periosteum, Mild (number of animals): 4
  Increased bone, periosteum, Minimal (number of animals): 2
  Increased bone, periosteum, Moderate (number of animals): 0
  Increased eroded surface, bone, Marked (number of animals): 0
  Increased eroded surface, bone, Mild (number of animals): 3
  Increased eroded surface, bone, Minimal (number of animals): 2
  Increased eroded surface, bone, Moderate (number of animals): 0
  Mixed cell inflammation, Marked (number of animals): 0
  Mixed cell inflammation, Mild (number of animals): 2
  Mixed cell inflammation, Minimal (number of animals): 0
  Mixed cell inflammation, Moderate (number of animals): 4
  No Visible Lesions (number of animals): 2
[2]; 10 mg/kg
  Erosion/Ulcer, cartilaginous, Marked (number of animals): 0
  Erosion/Ulcer, cartilaginous, Mild (number of animals): 1
  Erosion/Ulcer, cartilaginous, Minimal (number of animals): 1
  Erosion/Ulcer, cartilaginous, Moderate (number of animals): 0
  Granulation tissue, Marked (number of animals): 0
  Granulation tissue, Mild (number of animals): 1
  Granulation tissue, Minimal (number of animals): 0
  Granulation tissue, Moderate (number of animals): 0
  Increased bone, periosteum, Marked (number of animals): 0
  Increased bone, periosteum, Mild (number of animals): 0
  Increased bone, periosteum, Minimal (number of animals): 0
  Increased bone, periosteum, Moderate (number of animals): 0
  Increased eroded surface, bone, Marked (number of animals): 0
  Increased eroded surface, bone, Mild (number of animals): 0
  Increased eroded surface, bone, Minimal (number of animals): 1
  Increased eroded surface, bone, Moderate (number of animals): 0
  Mixed cell inflammation, Marked (number of animals): 0
  Mixed cell inflammation, Mild (number of animals): 1
  Mixed cell inflammation, Minimal (number of animals): 0
  Mixed cell inflammation, Moderate (number of animals): 1
  No Visible Lesions (number of animals): 6
